Laboratory results published in patent US11260042B2, “Pharmaceutical combination for the treatment of cancer” (ABILITY PHARMACEUTICALS S.L., priority 2017, dated 2022).

What was measured:
[1] = test system: MDB-DA-231 (human triple negative breast cancer); experiment: Cell viability (MTT) of ABTL0812 alone or with paclitaxel in breast cancer; format: cell-based
Experimental: Methods: MDB-DA-231 cells were seeded in 24-well plates together with increasing concentration of paclitaxel (1-100 nM) in the presence of 5, 10 and 20 μM of ABTL0812 (all doses below to an IC25) for 48h (0.5% FBS). Cell viability was studied by the MTT assay and several parameters were determined to evaluate a possible synergism. First the IC50 for each drug alone or the combination was calculated.

[2] = test system: A549 human lung adenocarcinoma xenograft; format: in vivo; conditions: ABTL0812 30 mg/kg/day oral 5 times a week; docetaxel 5 mg/kg i.p. once a week
Experimental: Methods: Mice were injected with 5×10^6 A549 cells in each flank to induce tumor formation. […] ABTL0812 was administered by the oral route at 30 mg/kg/day, 5 times a week. Docetaxel 5 mg/kg was administered intra-peritoneally once a week (Coxon et al. 2012). Tumor volume and body weight were monitorized 3 times a week.

[3] = test system: MiaPaca2 human pancreatic cancer xenograft; format: in vivo; conditions: ABTL0812 120 mg/kg oral; P/Gm 15 mg/kg and 60 mg/kg two times per week; 4 weeks
Experimental: Methods: Athymic female nude mice (n=9 per group) were injected via subcutaneous route with 0.1 ml of MiaPaca2 cells (5×10^6 cell/ml in serum free DMEM media in 1:1 with matrigel) in one flank. Tumor Volumes (TV) were measured as length×width^2×½ three times a week.

[4] = test system: SH-SY5Y human neuroblastoma xenograft; format: in vivo, Nu/nu female mice
Experimental: Methods: Immunodeficient athymic NMRI-Foxn1^nu/Foxn1^nu nude mice were subcutaneously injected with SH-SY5Y cells. This cell line was genetically modified to express luciferase, which would allow the in vivo study not only of tumor size, but also of metastasis formation. When tumors reached an average volume of 80 mm^3, mice were randomly distributed into different treatment groups. ABTL0812 was administered orally at 120 mg/kg daily. In parallel we used cisplatin, a drug included in the chemotherapy induction phase for the treatment of neuroblastoma. Cisplatin was administered at 2 mg/kg i.p. twice a week (Wang et al. 2010). Additionally, we studied the effect of combining ABTL0812 with cisplatin at the indicated doses.
C. Metastasis formation. In order to investigate the effect of ABTL0812 in metastasis formation we used a SH-SY5Y cell line transduced with a luciferase reporter vector. As described above, mice bearing xenograft tumors derived from this cell line were treated with ABTL0812, cisplatin or the combination of both drugs. After ten days of treatment animals were sacrificed and metastasis were assessed ex vivo by monitoring luciferase-expressing cells in lung and liver.

SMILES: CCCCC/C=C\C/C=C\CCCCCCC(O)C(=O)O (centres unmarked) [ABTL0812, COOH—CHOH—(CH2)6—(CH═CH—CH2)2—(CH2)3—CH3]
- cytotoxicity alone at the concentration chosen for the combination ([1]; MDB-DA-231): < 10%
- IC50 ([1]; MDB-DA-231, 48h, 0.5% FBS, MTT, single agent): 29 µM
- tumor volume [2]: significantly reduced tumor volume when compared to control animals
- tumor volume [3]: positive effect within the first 15 days after treatment, showing similar tumor volume to vehicle group in the following days
- tumor progression (size, weight) ([4]; ABTL0812 120 mg/kg oral daily, cisplatin 2 mg/kg i.p. twice a week): inhibits tumor progression with an efficacy that is similar to cisplatin
- Hematocrit ([4]; mouse, in vivo): 40.2 ± 1.4%
- RBC ([4]; mouse, in vivo): 7.9 ± 0.4 ×10^6/μL
- WBC ([4]; mouse, in vivo): 3.9 ± 1.3 ×10^3/μL
- hematological safety ([4]; mouse, in vivo): no impact on blood hematocrit
- loss of body weight (transient) ([4]; mouse, in vivo): < 10%
- metastasis formation in lung and liver ([4]; ten days of treatment, luciferase-expressing cells ex vivo): inhibited metastasis formation
